Test results reported in patent publication US20240343717A1, “MICROBIOCIDAL PYRAZOLE DERIVATIVES” (SYNGENTA CROP PROTECTION AG, priority 2021, published 2024).

Columns and labels:
[1] = test system: Phaeosphaeria nodorum (Septoria nodorum); assay: Phaeosphaeria nodorum (Septoria nodorum) / wheat / leaf disc preventative (glume blotch); assay type: in vivo; conditions: Parastagonospora nodorum, foliar, wheat leaf segments, inoculated 2 days after application
Method in brief: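 Wheat cv. Kanzler leaf segments on agar sprayed preventatively with formulated compound diluted in water, then inoculated with spore suspension 2 days after application. Incubated at 20° C, 75% rh, 12 h light/12 h dark; percent disease control versus untreated scored 5-7 days after application.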

Pyrenophora teres = Pyrenophora teres / barley / leaf disc preventative (net blotch); assay type: in vivo; conditions: foliar, barley leaf segments, inoculated 2 days after application
Method in brief: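 Barley cv. Hasso leaf segments on agar sprayed with formulated compound, inoculated with spores 2 days later. Incubated at 20 °C, 65% rh, 12 h light/dark; disease control versus untreated assessed 5–7 days after application.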

[2] = test system: Blumeria graminis f. sp. tritici (Erysiphe graminis f. sp. tritici); assay: Blumeria graminis f. sp. tritici / wheat / leaf disc preventative (powdery mildew on wheat); assay type: in vivo; conditions: foliar, wheat leaf segments, inoculated 1 day after application
Method in brief: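 Wheat cv. Kanzler leaf segments on agar sprayed with formulated compound in water, inoculated 1 day later by shaking mildew-infected plants overhead. Incubated at 20° C, 60% rh, 24 h dark then 12 h light/12 h dark. Percent disease control versus untreated scored 6-8 days after application.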

[3] = test system: Botryotinia fuckeliana (Botrytis cinerea); assay: Botryotinia fuckeliana (Botrytis cinerea) / liquid culture (gray mould); assay type: cell-based; conditions: growth inhibition photometrically 3-4 days after application, read-out: control of Botryotinia fuckeliana
Method in brief: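 Conidia suspended in Vogels broth and added to compound dispensed from DMSO. Incubated at 24°C, with growth inhibition measured photometrically 3–4 days later.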

[4] = test system: Glomerella lagenarium (Colletotrichum lagenarium); assay: Glomerella lagenarium (Colletotrichum lagenarium) / liquid culture (anthracnose); assay type: cell-based; conditions: Colletotrichum orbiculare, growth inhibition photometrically 3-4 days after application, read-out: control of Glomerella lagenarium
Method in brief: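 Cryo-stored conidia in potato dextrose broth were added to test compound in DMSO. Plates were incubated at 24° C, and growth inhibition was read photometrically 3-4 days after application.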

Alternaria solani = Alternaria solani / tomato / leaf disc (early blight); assay type: in vivo; conditions: foliar, tomato leaf disks, sprayed 2 days before inoculation, compared to untreated control
Procedure: Example B1: Alternaria solani/Tomato/Leaf Disc (Early Blight) Tomato leaf disks cv. Baby are placed on agar in multiwell plates (24-well format) and sprayed with the formulated test compound diluted in water. The leaf disks are inoculated with a spore suspension of the fungus 2 days after application. The inoculated leaf disks are incubated at 23° C./21° C.

Fusarium culmorum [5] = assay: microbe, parasite or virus in culture; assay type: cell-based; conditions: read-out: control of Fusarium culmorum
[6] = test system: Mycosphaerella graminicola (Septoria tritici); assay: Mycosphaerella graminicola (Septoria tritici) / liquid culture (Septoria blotch); assay type: cell-based; conditions: Zymoseptoria tritici, growth inhibition photometrically 4-5 days after application, read-out: control of Mycosphaerella graminicola
Method in brief: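 Conidia suspended in potato dextrose broth and added to test compound supplied in DMSO in 96-well plates. Incubated at 24 °C, and growth inhibition read photometrically 4-5 days after application.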

[7] = test system: Monographella nivalis (Microdochium nivale); assay: Monographella nivalis (Microdochium nivale) / liquid culture (foot rot cereals); assay type: cell-based; conditions: growth inhibition photometrically 4-5 days after application, read-out: control of Monographella nivalis
Method in brief: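 Fungal conidia mixed directly into potato dextrose broth and added to test compound delivered in DMSO. Incubated at 24° C; growth inhibition read photometrically 4-5 days after application.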

[8] = test system: Mycosphaerella arachidis (Cercospora arachidicola); assay: Mycosphaerella arachidis (Cercospora arachidicola) / liquid culture (early leaf spot); assay type: cell-based; conditions: growth inhibition photometrically 4-5 days after application, read-out: control of Mycosphaerella arachidis
Method in brief: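 Spores taken straight from cryostorage are suspended in potato dextrose broth and added to test compound in DMSO. Plates are incubated at 24° C. Growth inhibition is scored photometrically 4-5 days after application.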

Sclerotinia sclerotiorum = Sclerotinia sclerotiorum / liquid culture (cottony rot); assay type: cell-based; conditions: growth inhibition photometrically 3-4 days after application, read-out: control of Sclerotinia sclerotiorum
Method in brief: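 Mycelial fragments from fresh liquid culture in potato dextrose broth added to test compound in DMSO. Incubation at 24° C; growth inhibition read photometrically 3-4 days after application.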

[9] = test system: Magnaporthe grisea (Pyricularia Oryzae); assay: whole plant or invertebrate; assay type: in vivo; conditions: foliar, read-out: control of Magnaporthe grisea
Fusarium culmorum [10] = assay: whole plant or invertebrate; assay type: in vivo; conditions: in Triticum aestivum, read-out: control of Fusarium culmorum
[11] = test system: Gibberella zeae (Fusarium graminearum); assay: whole plant or invertebrate; assay type: in vivo; conditions: in Triticum aestivum, read-out: control of Gibberella zeae
[12] = test system: Puccinia recondita f. sp. tritici; assay: Puccinia recondita f. sp. tritici / wheat / leaf disc curative (brown rust); assay type: in vivo; conditions: 200 ppm, wheat leaf segments, applied 1 day after inoculation
Procedure: Example B11: Puccinia recondita f. Sp. Tritici/Wheat/Leaf Disc Curative (Brown Rust)
Wheat leaf segments cv. Kanzler are placed on agar in multiwell plates (24-well format). The leaf segments are inoculated with a spore suspension of the fungus. Plates are stored in darkness at 19° C. and 75% rh. The formulated test compound diluted in water is applied 1 day after inoculation. The leaf segments are incubated at 19° C. and 75% rh under a light regime of 12 h light/12 h darkness in a climate cabinet and the activity of a compound is assessed as percent disease control compared to untreated when an appropriate level of disease damage appears in untreated check leaf segments (6-8 days after application).

CO/N=C(\C)c1cccc(C(C)(CNC(=O)c2cc(-c3ccc(F)cc3F)on2)c2cnn(C)c2)n1 (stereo not shown) [Compound P-49, 5-(2,4-difluorophenyl)-N-[2-[6-[(E)-N-methoxy-C-methyl-carbonimidoyl]-2-pyridyl]-2-(1-methylpyrazol-4-lyl)propyl]isoxazole-3-carboxamide]
pest or weed control at 200 ppm [1]: ≥ 80% | pest or weed control at 200 ppm (Pyrenophora teres): ≥ 80% | pest or weed control at 200 ppm [2]: ≥ 80% | inhibition of growth at 20 ppm [3]: ≥ 80% | inhibition of growth at 20 ppm [4]: ≥ 80% | pest or weed control at 200 ppm (Alternaria solani): ≥ 80% | inhibition of growth at 20 ppm (Fusarium culmorum [5]): ≥ 80% | inhibition of growth at 20 ppm [6]: ≥ 80% | inhibition of growth at 20 ppm [7]: ≥ 80% | inhibition of growth at 20 ppm [8]: ≥ 80% | inhibition of growth at 20 ppm (Sclerotinia sclerotiorum): ≥ 80% | pest or weed control at 200 ppm [9]: ≥ 80% | pest or weed control at 200 ppm (Fusarium culmorum [10]): ≥ 80%

Cn1cc(C(C)(CNC(=O)c2cc(-c3ccc(F)cc3F)on2)c2cccc(Cl)n2)cn1 (stereo not shown) [Compound P-10, N-[2-(6-chloro-2-pyridyl)-2-(1-methylpyrazol-4-yl)propyl]-5-(2,4-difluorophenyl)isoxazole-3-carboxamide]
pest or weed control at 200 ppm [1]: ≥ 80% | pest or weed control at 200 ppm (Pyrenophora teres): ≥ 80% | pest or weed control at 200 ppm [2]: ≥ 80% | inhibition of growth at 20 ppm [3]: ≥ 80% | inhibition of growth at 20 ppm [4]: ≥ 80% | pest or weed control at 200 ppm (Alternaria solani): ≥ 80% | inhibition of growth at 20 ppm (Fusarium culmorum [5]): ≥ 80% | inhibition of growth at 20 ppm [6]: ≥ 80% | inhibition of growth at 20 ppm [7]: ≥ 80% | inhibition of growth at 20 ppm [8]: ≥ 80% | inhibition of growth at 20 ppm (Sclerotinia sclerotiorum): ≥ 80% | pest or weed control at 200 ppm [9]: ≥ 80% | pest or weed control at 200 ppm (Fusarium culmorum [10]): ≥ 80%

Cn1cc(C(C)(CNC(=O)c2cc(-c3ccc(F)cc3F)no2)c2cccc(Cl)n2)cn1 (stereo not shown) [Compound P-42, N-[2-(6-chloro-2-pyridyl)-2-(1-methylpyrazol-4-yl)propyl]-3-(2,4-difluorophenyl) isoxazole-5-carboxamide]
pest or weed control at 200 ppm [1]: ≥ 80% | pest or weed control at 200 ppm (Pyrenophora teres): ≥ 80% | inhibition of growth at 20 ppm [3]: ≥ 80% | melting point: 126 to 128 °C | inhibition of growth at 20 ppm (Fusarium culmorum [5]): ≥ 80% | inhibition of growth at 20 ppm [6]: ≥ 80% | inhibition of growth at 20 ppm [7]: ≥ 80% | inhibition of growth at 20 ppm [8]: ≥ 80% | inhibition of growth at 20 ppm (Sclerotinia sclerotiorum): ≥ 80% | pest or weed control at 200 ppm [9]: ≥ 80% | pest or weed control at 200 ppm (Fusarium culmorum [10]): ≥ 80% | pest or weed control at 200 ppm [11]: ≥ 80%

Cc1ccc(C(C)(CNC(=O)c2cc(-c3ccc(F)cc3F)on2)c2cnn(C)c2)nc1 (stereo not shown) [Compound P-19, 5-(2,4-difluorophenyl)-N-[2-(1-methylpyrazol-4-yl)-2-(5-methyl-2-pyridyl)propyl] isoxazole-3-carboxamide]
pest or weed control at 200 ppm (Pyrenophora teres): ≥ 80% | pest or weed control at 200 ppm [2]: ≥ 80% | inhibition of growth at 20 ppm [3]: ≥ 80% | inhibition of growth at 20 ppm [4]: ≥ 80% | pest or weed control at 200 ppm (Alternaria solani): ≥ 80% | control of Puccinia recondita f. sp. tritici [12]: at least 80% | inhibition of growth at 20 ppm [6]: ≥ 80% | inhibition of growth at 20 ppm [7]: ≥ 80%
